We go through 5 molecules from ChEMBL document CHEMBL1129833, “N-Phthalimidoalkyl derivatives of 2-carbomethoxy-3-(4-iodophenyl)tropane (-CIT): Brain monoamine transporter affinity” (Bioorg Med Chem Lett, 1997).

Common to all, as to type: tissue-based
In test [1] the target is Norepinephrine transporter (Rattus norvegicus, UniProt Q9WTR4). Briefly: In vitro binding affinity of compound for Norepinephrine (NE) transporter with [3H]- […] as radioligand in corpus striatum tissue from rat forebrain.
The target of test [2] is Sodium-dependent serotonin transporter (Rattus norvegicus, UniProt P31652). The test can be described thus: In vitro binding affinity of compound for Serotonin transporter with [3H]- paroxetine as radioligand in corpus striatum tissue from rat forebrain.
Test [3] has as its target Sodium-dependent dopamine transporter (Rattus norvegicus, UniProt P23977). The test can be described thus: In vitro binding affinity of compound for Dopamine transporter with [3H]- GBR-12935 as radioligand in corpus striatum tissue from rat forebrain.

SMILES strings stand for the structures.

Sequence of Norepinephrine transporter (Q9WTR4 whole entry): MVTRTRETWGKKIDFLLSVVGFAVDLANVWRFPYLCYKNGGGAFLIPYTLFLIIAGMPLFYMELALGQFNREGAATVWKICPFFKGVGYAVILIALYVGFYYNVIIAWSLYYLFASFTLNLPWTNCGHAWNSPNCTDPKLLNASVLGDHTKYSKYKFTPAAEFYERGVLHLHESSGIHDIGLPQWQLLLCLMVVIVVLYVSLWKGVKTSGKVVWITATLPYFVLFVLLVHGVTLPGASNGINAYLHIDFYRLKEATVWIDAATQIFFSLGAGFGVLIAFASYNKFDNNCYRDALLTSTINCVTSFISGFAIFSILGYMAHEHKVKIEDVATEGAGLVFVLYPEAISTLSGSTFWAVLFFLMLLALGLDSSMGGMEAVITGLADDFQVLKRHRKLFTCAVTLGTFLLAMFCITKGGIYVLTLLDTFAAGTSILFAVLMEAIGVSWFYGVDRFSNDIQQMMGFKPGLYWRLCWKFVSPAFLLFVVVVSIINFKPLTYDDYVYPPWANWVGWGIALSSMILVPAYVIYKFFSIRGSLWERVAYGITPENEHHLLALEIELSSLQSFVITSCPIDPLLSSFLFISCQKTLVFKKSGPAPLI
Sequence of Sodium-dependent dopamine transporter (P23977 whole entry): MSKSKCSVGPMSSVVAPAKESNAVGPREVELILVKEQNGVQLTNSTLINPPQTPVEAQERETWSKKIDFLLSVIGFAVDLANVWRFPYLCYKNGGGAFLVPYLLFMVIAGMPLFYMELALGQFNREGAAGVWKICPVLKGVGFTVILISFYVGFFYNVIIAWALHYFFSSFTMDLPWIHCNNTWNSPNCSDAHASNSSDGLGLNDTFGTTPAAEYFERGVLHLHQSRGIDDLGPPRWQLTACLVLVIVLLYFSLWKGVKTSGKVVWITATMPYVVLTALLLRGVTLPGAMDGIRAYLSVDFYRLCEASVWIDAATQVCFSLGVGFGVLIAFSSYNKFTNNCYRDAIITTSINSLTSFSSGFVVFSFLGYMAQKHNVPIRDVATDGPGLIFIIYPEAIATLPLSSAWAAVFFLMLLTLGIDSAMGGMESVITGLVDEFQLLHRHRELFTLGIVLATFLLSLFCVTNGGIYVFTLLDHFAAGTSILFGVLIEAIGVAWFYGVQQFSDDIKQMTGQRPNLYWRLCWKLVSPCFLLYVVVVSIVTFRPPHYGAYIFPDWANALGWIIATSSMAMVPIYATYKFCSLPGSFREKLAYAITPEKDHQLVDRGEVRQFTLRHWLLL
Sequence of Sodium-dependent serotonin transporter (P31652 whole entry): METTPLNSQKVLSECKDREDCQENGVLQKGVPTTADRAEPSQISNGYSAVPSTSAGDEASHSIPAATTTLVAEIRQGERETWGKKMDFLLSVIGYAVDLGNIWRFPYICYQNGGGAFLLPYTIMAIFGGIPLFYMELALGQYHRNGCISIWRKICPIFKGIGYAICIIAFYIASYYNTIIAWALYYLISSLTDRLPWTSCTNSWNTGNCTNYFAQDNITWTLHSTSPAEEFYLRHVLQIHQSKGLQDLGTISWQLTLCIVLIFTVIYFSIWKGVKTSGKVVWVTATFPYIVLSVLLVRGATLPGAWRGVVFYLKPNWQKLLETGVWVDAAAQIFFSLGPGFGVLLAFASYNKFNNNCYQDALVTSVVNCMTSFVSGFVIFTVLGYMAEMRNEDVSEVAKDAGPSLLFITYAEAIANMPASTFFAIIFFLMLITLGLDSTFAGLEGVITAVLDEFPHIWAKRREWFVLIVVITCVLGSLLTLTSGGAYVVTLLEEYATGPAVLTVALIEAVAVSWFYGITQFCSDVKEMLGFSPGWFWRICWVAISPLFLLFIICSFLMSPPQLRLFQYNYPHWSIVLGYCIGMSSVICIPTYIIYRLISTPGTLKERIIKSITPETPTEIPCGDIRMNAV

Take `COC(=O)C1C2CC[C@H](C[C@@H]1c1ccc(I)cc1)N2CCN1C(=O)c2ccccc2C1=O` (stereo partly drawn): the Ki – broadly, a dissociation constant, usually derived from enzyme kinetics or from competition with a known ligand – in test [1] amounted to 441 nM; in test [2], 0.84 nM; in test [3], 4.23 nM.

For the molecule `COC(=O)C1C2CC[C@@H](C[C@@H]1c1ccc(I)cc1)N2CCCCN1C(=O)c2ccccc2C1=O` (stereo partly drawn), the Ki in test [1] was 190 nM; in test [2], 0.21 nM; in test [3] it was 2.38 nM.

In test [2], `COC(=O)C1C2CC[C@H](C[C@@H]1c1ccc(I)cc1)N2C` (stereo partly drawn) came in with a Ki of 0.44 nM. In other words, the sub-nanomolar range.

With `COC(=O)C1C2CC[C@H](C[C@@H]1c1ccc(I)cc1)N2CCCCCCCCN1C(=O)c2ccccc2C1=O` (stereo partly drawn), the Ki came to 75 nM in test [1], 0.2 nM in test [2] and 2.98 nM in test [3].

In the case of `COC(=O)C1C2CC[C@H](C[C@@H]1c1ccc(I)cc1)N2CCCCCN1C(=O)c2ccccc2C1=O` (stereo partly drawn), the Ki in test [1] came to 60 nM; in test [2], 0.34 nM; in test [3] it was 2.4 nM.
